What was measured:
Assay in all cases: biochemical
Set-up in all cases: KINOMEscan active-site competition binding, percent of control (100 = no competition)
Conditions in all cases: competition binding, percent control
PIK3C2B = PIK3C2B (Homo sapiens, UniProt O00750)
ACVR2A = ACVR2A (Homo sapiens, UniProt P27037)
BRAF = BRAF (Homo sapiens, UniProt P15056)
EGFR(T790M) = EGFR(T790M) (Homo sapiens, UniProt P00533, T790M)
MYLK2 = MYLK2 (Homo sapiens, UniProt Q9H1R3)
NEK5 = NEK5 (Homo sapiens, UniProt Q6P3R8)
CDK7 = CDK7 (Homo sapiens, UniProt P50613)
CDK7, sequence (P50613 whole entry): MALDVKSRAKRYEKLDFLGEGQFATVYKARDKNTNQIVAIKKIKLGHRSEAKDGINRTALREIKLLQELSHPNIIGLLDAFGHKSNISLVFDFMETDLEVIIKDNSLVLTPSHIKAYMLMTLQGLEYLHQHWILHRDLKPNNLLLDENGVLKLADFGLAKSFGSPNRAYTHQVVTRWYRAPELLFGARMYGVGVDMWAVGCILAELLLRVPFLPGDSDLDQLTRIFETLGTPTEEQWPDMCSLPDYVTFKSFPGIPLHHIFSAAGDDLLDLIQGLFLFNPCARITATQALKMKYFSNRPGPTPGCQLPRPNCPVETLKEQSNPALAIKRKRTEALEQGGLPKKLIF

CSF1R = CSF1R (Homo sapiens, UniProt P07333)
LRRK2 = LRRK2 (Homo sapiens, UniProt Q5S007)
LRRK2, sequence (Q5S007 whole entry): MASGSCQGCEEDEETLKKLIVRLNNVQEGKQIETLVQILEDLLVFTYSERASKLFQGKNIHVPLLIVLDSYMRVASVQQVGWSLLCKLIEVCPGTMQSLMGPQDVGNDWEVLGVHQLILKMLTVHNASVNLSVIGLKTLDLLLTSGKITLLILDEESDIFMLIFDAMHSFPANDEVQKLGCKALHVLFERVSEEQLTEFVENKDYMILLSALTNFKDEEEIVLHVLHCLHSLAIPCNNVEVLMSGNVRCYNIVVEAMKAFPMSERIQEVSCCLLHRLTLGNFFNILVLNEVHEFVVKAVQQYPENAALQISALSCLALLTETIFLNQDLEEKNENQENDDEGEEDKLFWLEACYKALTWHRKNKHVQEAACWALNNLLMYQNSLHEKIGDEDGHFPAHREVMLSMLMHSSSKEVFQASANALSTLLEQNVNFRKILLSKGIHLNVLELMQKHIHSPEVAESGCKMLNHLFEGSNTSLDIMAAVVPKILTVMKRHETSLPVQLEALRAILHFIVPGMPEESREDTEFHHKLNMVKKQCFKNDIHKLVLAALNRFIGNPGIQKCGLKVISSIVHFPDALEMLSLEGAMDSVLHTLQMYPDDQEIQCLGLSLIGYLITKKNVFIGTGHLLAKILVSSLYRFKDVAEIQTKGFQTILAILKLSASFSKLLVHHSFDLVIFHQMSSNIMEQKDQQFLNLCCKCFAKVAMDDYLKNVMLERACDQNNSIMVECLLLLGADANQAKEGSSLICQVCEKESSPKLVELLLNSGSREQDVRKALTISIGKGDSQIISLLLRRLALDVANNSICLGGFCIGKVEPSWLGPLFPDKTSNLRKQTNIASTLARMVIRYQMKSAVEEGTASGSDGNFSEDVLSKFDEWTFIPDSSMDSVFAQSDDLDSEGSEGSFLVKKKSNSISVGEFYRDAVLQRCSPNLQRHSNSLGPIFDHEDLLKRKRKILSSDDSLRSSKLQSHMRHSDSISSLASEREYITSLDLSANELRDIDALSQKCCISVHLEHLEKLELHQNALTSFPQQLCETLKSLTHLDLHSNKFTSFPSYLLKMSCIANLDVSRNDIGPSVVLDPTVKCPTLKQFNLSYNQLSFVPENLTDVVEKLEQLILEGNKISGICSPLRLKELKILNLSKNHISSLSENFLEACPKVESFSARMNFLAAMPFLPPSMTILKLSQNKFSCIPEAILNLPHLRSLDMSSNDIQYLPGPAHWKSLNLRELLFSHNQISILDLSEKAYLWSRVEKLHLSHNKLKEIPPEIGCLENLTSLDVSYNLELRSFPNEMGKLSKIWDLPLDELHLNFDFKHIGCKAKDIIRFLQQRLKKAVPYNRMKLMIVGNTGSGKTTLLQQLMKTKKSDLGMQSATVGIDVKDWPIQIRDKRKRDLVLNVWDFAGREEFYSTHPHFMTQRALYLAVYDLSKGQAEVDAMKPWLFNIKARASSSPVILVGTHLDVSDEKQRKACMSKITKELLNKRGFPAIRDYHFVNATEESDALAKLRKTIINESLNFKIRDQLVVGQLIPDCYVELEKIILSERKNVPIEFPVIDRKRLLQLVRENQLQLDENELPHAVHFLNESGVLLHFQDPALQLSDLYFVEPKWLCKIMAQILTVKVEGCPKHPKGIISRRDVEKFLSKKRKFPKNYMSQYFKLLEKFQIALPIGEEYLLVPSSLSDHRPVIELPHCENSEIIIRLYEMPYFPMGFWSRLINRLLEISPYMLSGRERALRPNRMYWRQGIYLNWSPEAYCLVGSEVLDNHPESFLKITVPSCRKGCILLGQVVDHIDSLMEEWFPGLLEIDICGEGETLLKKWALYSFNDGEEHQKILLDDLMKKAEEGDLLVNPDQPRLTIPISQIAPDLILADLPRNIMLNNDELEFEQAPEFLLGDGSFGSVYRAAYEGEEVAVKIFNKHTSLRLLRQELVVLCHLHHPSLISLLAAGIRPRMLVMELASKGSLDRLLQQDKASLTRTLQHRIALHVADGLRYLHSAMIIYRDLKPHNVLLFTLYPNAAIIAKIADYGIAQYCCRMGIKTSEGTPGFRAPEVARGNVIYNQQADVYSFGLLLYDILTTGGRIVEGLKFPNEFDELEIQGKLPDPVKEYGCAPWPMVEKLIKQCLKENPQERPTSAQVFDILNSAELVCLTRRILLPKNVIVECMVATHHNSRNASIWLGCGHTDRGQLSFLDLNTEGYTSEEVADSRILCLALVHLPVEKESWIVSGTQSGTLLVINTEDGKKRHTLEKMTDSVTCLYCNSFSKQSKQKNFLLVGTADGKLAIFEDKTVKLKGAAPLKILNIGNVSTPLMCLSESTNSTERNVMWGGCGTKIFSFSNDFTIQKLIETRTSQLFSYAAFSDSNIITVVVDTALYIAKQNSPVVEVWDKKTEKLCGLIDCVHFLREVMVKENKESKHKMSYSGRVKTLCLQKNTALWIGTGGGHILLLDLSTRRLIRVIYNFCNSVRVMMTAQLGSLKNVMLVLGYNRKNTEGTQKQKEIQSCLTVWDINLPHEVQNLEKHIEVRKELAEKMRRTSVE

MERTK = MERTK (Homo sapiens, UniProt Q12866)
MERTK, sequence (Q12866 whole entry): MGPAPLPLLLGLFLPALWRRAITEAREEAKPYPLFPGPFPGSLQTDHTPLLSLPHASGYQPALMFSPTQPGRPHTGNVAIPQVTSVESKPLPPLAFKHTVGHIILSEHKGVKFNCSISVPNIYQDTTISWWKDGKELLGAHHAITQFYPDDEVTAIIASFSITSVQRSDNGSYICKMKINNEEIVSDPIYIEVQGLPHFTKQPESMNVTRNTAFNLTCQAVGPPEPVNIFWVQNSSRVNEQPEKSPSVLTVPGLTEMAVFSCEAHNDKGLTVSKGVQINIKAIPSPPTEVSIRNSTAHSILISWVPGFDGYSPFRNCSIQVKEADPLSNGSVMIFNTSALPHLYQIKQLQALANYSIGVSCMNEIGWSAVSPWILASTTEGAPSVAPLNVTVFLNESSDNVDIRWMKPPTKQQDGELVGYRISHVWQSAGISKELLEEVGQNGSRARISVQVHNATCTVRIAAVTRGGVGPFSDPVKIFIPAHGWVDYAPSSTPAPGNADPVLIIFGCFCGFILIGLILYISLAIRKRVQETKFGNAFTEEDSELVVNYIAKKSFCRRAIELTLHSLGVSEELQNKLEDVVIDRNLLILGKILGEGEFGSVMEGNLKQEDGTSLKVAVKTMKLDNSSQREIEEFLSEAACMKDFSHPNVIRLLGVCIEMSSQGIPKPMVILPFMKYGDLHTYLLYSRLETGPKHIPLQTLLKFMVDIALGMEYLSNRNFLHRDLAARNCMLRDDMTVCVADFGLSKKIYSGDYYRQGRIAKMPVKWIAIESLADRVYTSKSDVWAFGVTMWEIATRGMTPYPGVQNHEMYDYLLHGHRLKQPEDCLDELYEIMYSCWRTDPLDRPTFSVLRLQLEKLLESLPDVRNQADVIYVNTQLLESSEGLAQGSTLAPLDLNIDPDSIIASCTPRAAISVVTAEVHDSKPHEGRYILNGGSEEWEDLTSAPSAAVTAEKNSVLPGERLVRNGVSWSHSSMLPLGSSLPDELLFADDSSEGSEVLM

GAK = GAK (Homo sapiens, UniProt O14976)
MKK7 = molecular target: T1, MKK7 (Homo sapiens, UniProt O14733)
T1 construct: gene MAP2K7

CDKL5 = CDKL5 (Homo sapiens, UniProt O76039)
ABL2 = ABL2 (Homo sapiens, UniProt P42684)
ERK8 = molecular target: T2, ERK8 (Homo sapiens, UniProt Q8TD08)
T2 construct: gene MAPK15

ULK1 = ULK1 (Homo sapiens, UniProt O75385)
HUNK = HUNK (Homo sapiens, UniProt P57058)
PAK1 = PAK1 (Homo sapiens, UniProt Q13153)
MINK = molecular target: T3, MINK (Homo sapiens, UniProt Q8N4C8)
T3 construct: gene MINK1

MARK1 = MARK1 (Homo sapiens, UniProt Q9P0L2)
TIE1 = TIE1 (Homo sapiens, UniProt P35590)
MARK2 = MARK2 (Homo sapiens, UniProt Q7KZI7)
TRKB = molecular target: T4, TRKB (Homo sapiens, UniProt Q16620)
T4 construct: gene NTRK2

EGFR(T790M), sequence (P00533 whole entry T790M): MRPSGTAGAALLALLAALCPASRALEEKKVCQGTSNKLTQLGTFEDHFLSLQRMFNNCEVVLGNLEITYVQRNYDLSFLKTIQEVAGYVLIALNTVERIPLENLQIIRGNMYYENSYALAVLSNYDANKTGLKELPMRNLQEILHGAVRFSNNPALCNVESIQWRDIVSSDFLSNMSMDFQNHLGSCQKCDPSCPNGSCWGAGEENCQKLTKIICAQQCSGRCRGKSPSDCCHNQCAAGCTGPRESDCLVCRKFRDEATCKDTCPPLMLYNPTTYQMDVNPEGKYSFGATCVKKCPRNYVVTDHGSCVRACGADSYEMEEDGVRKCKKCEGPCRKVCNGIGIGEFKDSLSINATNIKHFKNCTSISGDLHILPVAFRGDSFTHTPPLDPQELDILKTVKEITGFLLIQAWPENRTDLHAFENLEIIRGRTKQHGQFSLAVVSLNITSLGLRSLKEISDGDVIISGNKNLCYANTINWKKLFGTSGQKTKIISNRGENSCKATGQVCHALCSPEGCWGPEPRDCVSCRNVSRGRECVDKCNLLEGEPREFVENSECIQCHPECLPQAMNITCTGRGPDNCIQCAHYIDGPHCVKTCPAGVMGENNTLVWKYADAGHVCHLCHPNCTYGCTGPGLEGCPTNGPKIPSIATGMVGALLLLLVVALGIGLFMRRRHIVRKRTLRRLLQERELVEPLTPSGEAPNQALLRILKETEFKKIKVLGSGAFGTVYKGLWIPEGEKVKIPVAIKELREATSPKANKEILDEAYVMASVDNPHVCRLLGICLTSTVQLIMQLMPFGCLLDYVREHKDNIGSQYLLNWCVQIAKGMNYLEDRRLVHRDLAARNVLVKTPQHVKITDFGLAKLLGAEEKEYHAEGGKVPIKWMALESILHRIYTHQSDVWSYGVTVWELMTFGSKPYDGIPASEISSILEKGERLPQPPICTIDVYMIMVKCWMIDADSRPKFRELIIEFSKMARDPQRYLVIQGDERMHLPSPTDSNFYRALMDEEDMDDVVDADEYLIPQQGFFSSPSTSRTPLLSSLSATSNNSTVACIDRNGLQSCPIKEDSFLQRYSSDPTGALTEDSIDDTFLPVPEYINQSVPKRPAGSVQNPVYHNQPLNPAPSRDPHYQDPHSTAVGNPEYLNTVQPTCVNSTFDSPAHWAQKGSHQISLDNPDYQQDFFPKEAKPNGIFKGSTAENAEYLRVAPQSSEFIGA

| Structure (SMILES) | remaining binding at 10 µM (PIK3C2B) | remaining binding at 10 µM (ACVR2A) | remaining binding at 10 µM (BRAF) | remaining binding at 10 µM (EGFR(T790M)) | remaining binding at 10 µM (MYLK2) | remaining binding at 10 µM (NEK5) | remaining binding at 10 µM (CDK7) | remaining binding at 10 µM (CSF1R) | remaining binding at 10 µM (LRRK2) | remaining binding at 10 µM (MERTK) | remaining binding at 10 µM (GAK) | remaining binding at 10 µM (MKK7) | remaining binding at 10 µM (CDKL5) | remaining binding at 10 µM (ABL2) | remaining binding at 10 µM (ERK8) | remaining binding at 10 µM (ULK1) | remaining binding at 10 µM (HUNK) | remaining binding at 10 µM (PAK1) | remaining binding at 10 µM (MINK) | remaining binding at 10 µM (MARK1) | also measured |
| --- | --- | --- | --- | --- | --- | --- | --- | --- | --- | --- | --- | --- | --- | --- | --- | --- | --- | --- | --- | --- | --- |
| COc1ccc(-c2cnccc2-c2cnc(NC(=O)C(C)C)s2)c(C(F)(F)F)c1 [CRT0105446, N-{5-[3-(4-Methoxy-2-trifluoromethyl-phenyl)-pyridin-4-yl]-hiazol-2-yl}-isobutyramide] | 100% | 74% | 79% | 78% | 49% | 99% | 5.8% | 51% | 91% | 69% | 92% | 97% | 100% | 100% | 1.4% | 100% | 89% | 57% | 100% | 87% | remaining binding at 10 µM (TIE1): 87%; remaining binding at 10 µM (MARK2): 63%; remaining binding at 10 µM (TRKB): 99% |
| Cc1ccc(-c2cnccc2-c2cnc(Nc3ccc(O)cc3)s2)c(Cl)c1 [CRT0105950, 4-{5-[3-(2-Chloro-4-methyl-phenyl)-pyridin-4-yl]-thiazol-2-ylamino}-phenol] | 100% | 45% | 93% | 63% | 49% | 65% | 32% | 1.2% | 54% | 0.45% | 22% | 38% | 99% | 58% | 1.6% | 38% | 49% | 97% | 13% | 5.8% | remaining binding at 10 µM (TIE1): 16%; remaining binding at 10 µM (MARK2): 28%; remaining binding at 10 µM (TRKB): 6.4% |

Source: PMC4770715, “LIM kinase inhibitors disrupt mitotic microtubule organization and impair tumor cell proliferation” (Oncotarget, 2015)
